Measured values reported in the CheMixHub viscosity set.
± gives the uncertainty stated by the source.

Assay: xn = mol fraction of the nth substance listed

ClCc1ccccc1 + COc1ccccc1
303.15 K, 101 kPa
Settings | viscosity [mPa·s]
x2 = 0.1045 | 1.245 ± 0.011
x2 = 0.1911 | 1.362 ± 0.013
x2 = 0.304 | 1.438 ± 0.013
x2 = 0.4094 | 1.466 ± 0.013
x2 = 0.5182 | 1.45 ± 0.013
x2 = 0.6162 | 1.394 ± 0.013
x2 = 0.7196 | 1.3 ± 0.012
x2 = 0.8053 | 1.192 ± 0.011
x2 = 0.9137 | 1.061 ± 0.0099

CC(C)(C)O + CS(C)=O
viscosity [mPa·s], 101.3 kPa
Settings | x2 = 0.095 | x2 = 0.1916 | x2 = 0.289 | x2 = 0.3874 | x2 = 0.5132 | x2 = 0.5873 | x2 = 0.6888 | x2 = 0.7916 | x2 = 0.8951
298.15 K | 3.564 ± 0.24 | 2.968 ± 0.2 | 2.53 ± 0.17 | 2.269 ± 0.15 | 2.07 ± 0.14 | 2.005 ± 0.14 | 1.917 ± 0.13 | 1.902 ± 0.13 | 1.971 ± 0.14
303.15 K | 2.644 ± 0.18 | 2.111 ± 0.14 | 1.808 ± 0.13 | 1.608 ± 0.11 | 1.479 ± 0.11 | 1.459 ± 0.1 | 1.531 ± 0.11 | 1.568 ± 0.11 | 1.719 ± 0.12

CNC + CS(C)=O
303.15 K, 101 kPa
Settings | viscosity [mPa·s]
x2 = 0.061 | 2.067 ± 0.05
x2 = 0.1207 | 2.133 ± 0.049
x2 = 0.2361 | 2.207 ± 0.045
x2 = 0.4518 | 2.373 ± 0.038
x2 = 0.6496 | 2.207 ± 0.026
x2 = 0.8318 | 1.939 ± 0.017

Nc1ccccc1 + CS(C)=O
viscosity [mPa·s], 101 kPa
Settings | 298.15 K | 302.4 K | 308.15 K | 318.15 K
x2 = 0.0786 | – | 5.806 | – | –
x2 = 0.1 | 3.83 ± 0.039 | – | 2.841 ± 0.03 | 2.194 ± 0.023
x2 = 0.2 | 3.94 ± 0.04 | – | 2.925 ± 0.031 | 2.259 ± 0.024
x2 = 0.2281 | – | 3.998 | – | –
x2 = 0.3 | 3.99 ± 0.04 | – | 2.98 ± 0.031 | 2.3 ± 0.025
x2 = 0.4 | 3.938 ± 0.039 | – | 2.958 ± 0.031 | 2.294 ± 0.025
x2 = 0.4344 | – | 4.788 | – | –
x2 = 0.5 | 3.756 ± 0.037 | – | 2.839 ± 0.029 | 2.232 ± 0.024
x2 = 0.5614 | – | 5.863 | – | –
x2 = 0.6 | 3.445 ± 0.034 | – | 2.644 ± 0.027 | 2.106 ± 0.022
x2 = 0.6809 | – | 6.538 | – | –
x2 = 0.7 | 3.055 ± 0.03 | – | 2.397 ± 0.024 | 1.938 ± 0.02
x2 = 0.8 | 2.664 ± 0.026 | – | 2.134 ± 0.021 | 1.746 ± 0.018
x2 = 0.8473 | – | 6.37 | – | –
x2 = 0.9 | 2.313 ± 0.022 | – | 1.886 ± 0.019 | 1.529 ± 0.015

C[C@@H]1CC[C@@H]2C[C@H]1C2(C)C + C[C@H]1CC[C@@H]2C[C@H]1C2(C)C
100 kPa, x2 = 0.9048
Settings | viscosity [mPa·s]
293.15 K | 2.24 ± 0.13
298.15 K | 2.023 ± 0.13
303.15 K | 1.838 ± 0.13
308.15 K | 1.679 ± 0.13
313.15 K | 1.538 ± 0.13
318.15 K | 1.415 ± 0.13
323.15 K | 1.308 ± 0.13
